According to ChEMBL document CHEMBL1135069, “The discovery of acylated beta-amino acids as potent and orally bioavailable VLA-4 antagonists” (Bioorg Med Chem Lett, 2002):

How the values were obtained:
in vivo = conditions: Sprague-Dawley, rat, plasma, iv, 1 mg/kg
Integrin alpha-4/beta-1 [1] = target: T1, Integrin alpha-4/beta-1 (Homo sapiens, UniProt P05556+P13612); assay: Inhibitory activity against alpha-4 beta-1 receptor (VLA-4) in human RPMI-8866 cells using [125I]-VCAM-Ig ligand; type: cell-based
Integrin alpha-4/beta-1 [2] = target: T1, Integrin alpha-4/beta-1; assay: Inhibition of [125I]VCAM-Ig binding to alpha4-beta1 (VLA-4) of human RPMI-8866 cells; type: cell-based
Rattus norvegicus = species on record: Rattus norvegicus; conditions: in vivo, iv, 1 mg/kg
[3] = Bioavailability in rat (dose 1 mg/kg i.v. and 2 mg/kg p.o.); conditions: in vivo, po, F

T1 sequence (P05556 whole entry): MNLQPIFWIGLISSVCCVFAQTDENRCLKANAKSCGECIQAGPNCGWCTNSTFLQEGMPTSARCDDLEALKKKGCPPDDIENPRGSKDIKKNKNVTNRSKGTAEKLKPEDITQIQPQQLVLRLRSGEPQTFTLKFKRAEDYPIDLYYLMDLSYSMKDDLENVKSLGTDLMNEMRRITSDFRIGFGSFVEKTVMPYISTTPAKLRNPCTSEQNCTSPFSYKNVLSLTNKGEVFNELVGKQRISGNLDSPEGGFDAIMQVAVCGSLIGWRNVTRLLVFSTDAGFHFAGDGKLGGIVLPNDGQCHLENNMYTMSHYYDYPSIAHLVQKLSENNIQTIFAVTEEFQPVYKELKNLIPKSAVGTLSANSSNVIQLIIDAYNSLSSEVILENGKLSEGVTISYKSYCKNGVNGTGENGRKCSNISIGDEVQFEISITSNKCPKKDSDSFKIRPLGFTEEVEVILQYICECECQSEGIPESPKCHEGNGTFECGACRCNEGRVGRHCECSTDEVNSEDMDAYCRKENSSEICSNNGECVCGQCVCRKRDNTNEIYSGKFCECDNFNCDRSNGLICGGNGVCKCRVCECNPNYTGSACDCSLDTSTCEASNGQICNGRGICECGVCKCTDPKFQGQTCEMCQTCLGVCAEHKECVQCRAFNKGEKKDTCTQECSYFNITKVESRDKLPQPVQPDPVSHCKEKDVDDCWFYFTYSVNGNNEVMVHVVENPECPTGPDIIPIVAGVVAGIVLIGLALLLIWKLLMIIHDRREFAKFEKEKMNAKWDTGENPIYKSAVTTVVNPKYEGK
T1 sequence (P13612 whole entry): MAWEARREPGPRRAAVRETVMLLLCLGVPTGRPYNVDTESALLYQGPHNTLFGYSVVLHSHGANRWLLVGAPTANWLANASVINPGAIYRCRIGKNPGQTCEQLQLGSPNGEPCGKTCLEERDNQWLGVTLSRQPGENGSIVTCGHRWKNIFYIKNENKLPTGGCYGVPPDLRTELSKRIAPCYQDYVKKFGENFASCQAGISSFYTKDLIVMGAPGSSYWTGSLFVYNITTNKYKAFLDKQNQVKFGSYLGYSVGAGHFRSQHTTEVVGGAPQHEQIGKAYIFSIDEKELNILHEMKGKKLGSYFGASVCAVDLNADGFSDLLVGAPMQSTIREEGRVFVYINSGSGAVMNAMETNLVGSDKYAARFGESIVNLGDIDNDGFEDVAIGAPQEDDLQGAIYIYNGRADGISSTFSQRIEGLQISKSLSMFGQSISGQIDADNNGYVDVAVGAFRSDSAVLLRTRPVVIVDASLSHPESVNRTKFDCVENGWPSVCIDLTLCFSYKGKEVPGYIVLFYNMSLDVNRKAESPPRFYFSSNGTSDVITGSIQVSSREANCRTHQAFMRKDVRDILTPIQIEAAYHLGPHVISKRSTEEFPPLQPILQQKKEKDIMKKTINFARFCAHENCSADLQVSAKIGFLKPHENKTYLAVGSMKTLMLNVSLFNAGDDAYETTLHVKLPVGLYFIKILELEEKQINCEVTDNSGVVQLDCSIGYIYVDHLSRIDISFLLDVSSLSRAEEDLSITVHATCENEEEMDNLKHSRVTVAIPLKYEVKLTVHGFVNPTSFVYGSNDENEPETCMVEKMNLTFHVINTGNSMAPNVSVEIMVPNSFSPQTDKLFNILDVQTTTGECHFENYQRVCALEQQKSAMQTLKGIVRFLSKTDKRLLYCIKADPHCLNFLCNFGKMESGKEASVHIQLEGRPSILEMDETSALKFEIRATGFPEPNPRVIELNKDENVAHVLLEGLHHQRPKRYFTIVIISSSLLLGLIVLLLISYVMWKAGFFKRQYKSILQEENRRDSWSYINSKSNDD

| SMILES | clearance (in vivo) [mL/min/kg] | IC50 (Integrin alpha-4/beta-1 [1]) [nM] | further results |
| --- | --- | --- | --- |
| O=C(O)C[C@H](NC(=O)[C@@H]1CCCN1S(=O)(=O)c1cc(Cl)cc(Cl)c1)c1ccccc1 |  | 544 |  |
| O=C(O)C[C@@H](NC(=O)[C@@H]1CCN1S(=O)(=O)c1cc(Cl)cc(Cl)c1)c1ccccc1 | 27 |  | IC50 (Integrin alpha-4/beta-1 [2]): 2.4 nM |
| O=C(O)C[C@H](Cc1ccccc1)NC(=O)[C@@H]1CCCN1S(=O)(=O)c1cc(Cl)cc(Cl)c1 |  | 22 |  |
| O=C(O)C[C@@H](NC(=O)[C@@H]1CCN1S(=O)(=O)c1cc(Cl)cc(Cl)c1)c1ccc(Oc2ccccc2)cc1 |  | 3.1 |  |
| C/C=C/[C@@H](CC(=O)O)NC(=O)[C@@H]1CCCN1S(=O)(=O)c1cc(Cl)cc(Cl)c1 |  | 13 |  |
| COc1ccc([C@](C)(CC(=O)O)NC(=O)[C@@H]2CCN2S(=O)(=O)c2cc(Cl)cc(Cl)c2)cc1 | 46 | 26 | bioavailability [3]: 19% |
| O=C(O)C[C@@H](NC(=O)[C@@H]1CCN1S(=O)(=O)c1cc(Cl)cc(Cl)c1)c1ccc(Cl)c(F)c1 |  | 11 |  |
| CC(C)[C@@H](CC(=O)O)NC(=O)[C@@H]1CCCN1S(=O)(=O)c1cc(Cl)cc(Cl)c1 |  | 8.9 |  |
| O=C(O)C[C@@H](NC(=O)[C@@H]1CCN1S(=O)(=O)c1cc(Cl)cc(Cl)c1)c1ccc(F)cc1 |  | 3.2 |  |
| Cc1ccccc1NC(=O)Nc1ccc(CN[C@@H](CC(C)C)C(=O)N[C@@H](CC(=O)O)c2ccc3c(c2)OCO3)cc1 |  | 3 |  |
| O=C(O)CCNC(=O)[C@@H]1CCCN1S(=O)(=O)c1cc(Cl)cc(Cl)c1 |  | 1510 |  |
| CC(C)[C@H](CC(=O)O)NC(=O)[C@@H]1CCCN1S(=O)(=O)c1cc(Cl)cc(Cl)c1 |  | 362 |  |

Continued by falling IC50 (Integrin alpha-4/beta-1 [1]), values first:

| clearance (in vivo) [mL/min/kg] | IC50 (Integrin alpha-4/beta-1 [1]) [nM] | SMILES | further results |
| --- | --- | --- | --- |
| 55 | 3 | COc1ccc([C@@H](CC(=O)O)NC(=O)[C@@H]2CCN2S(=O)(=O)c2cc(Cl)cc(Cl)c2)cn1 |  |
| 22 | 2.6 | O=C(O)C[C@@H](NC(=O)[C@@H]1CCCN1S(=O)(=O)c1cc(Cl)cc(Cl)c1)c1ccc(OC(F)(F)F)cc1 |  |
|  | 2.1 | O=C(O)C[C@@H](NC(=O)[C@@H]1CCN1S(=O)(=O)c1cc(Cl)cc(Cl)c1)c1ccc(Br)cc1 |  |
| 7 | 1.5 | COc1ccc([C@@H](CC(=O)O)NC(=O)[C@]2(C)CCN2S(=O)(=O)c2cc(Cl)cc(Cl)c2)cc1 |  |
| 43 | 1.4 | O=C(O)C[C@@H](NC(=O)[C@@H]1CCN1S(=O)(=O)c1cc(Cl)cc(Cl)c1)c1ccc(OCC(F)(F)F)cc1 | bioavailability [3]: 38% |
|  | 1.4 | O=C(O)[C@H](Cc1ccccc1)NC(=O)[C@@H]1CCCN1S(=O)(=O)c1cc(Cl)cc(Cl)c1 |  |
|  | 1.3 | O=C(O)C[C@@H](NC(=O)[C@@H]1CCN1S(=O)(=O)c1cc(Cl)cc(Cl)c1)c1ccc(OC(F)F)cc1 |  |
| 26 | 0.85 | O=C(O)C[C@@H](NC(=O)[C@@H]1CCCN1S(=O)(=O)c1cc(Cl)cc(Cl)c1)c1ccc(OC2CC2)cc1 |  |
| 22 | 0.74 | O=C(O)C[C@@H](NC(=O)[C@@H]1CCCN1S(=O)(=O)c1cc(Cl)cc(Cl)c1)c1ccc(O)cc1 |  |
|  | 0.72 | O=C(O)C[C@@H](NC(=O)[C@@H]1CCN1S(=O)(=O)c1cc(Cl)cc(Cl)c1)c1ccc(OCF)cc1 |  |
| 92 | 0.55 | CS(=O)(=O)c1ccc([C@@H](CC(=O)O)NC(=O)[C@@H]2CCCN2S(=O)(=O)c2cc(Cl)cc(Cl)c2)cc1 |  |
|  | 0.53 | CC(C)(C)Oc1ccc([C@@H](CC(=O)O)NC(=O)[C@@H]2CCCN2S(=O)(=O)c2cc(Cl)cc(Cl)c2)cc1 |  |
| 165 | 0.5 | O=C(O)C[C@@H](NC(=O)[C@@H]1CCN1S(=O)(=O)c1cc(Cl)cc(Cl)c1)c1ccc(OC2CCCC2)cc1 |  |
|  | 0.49 | COc1ccc([C@@H](CC(=O)O)NC(=O)[C@@H]2CCN2S(=O)(=O)c2cc(Cl)cc(Cl)c2)cc1 (stereo in doubt; 7g) | clearance (Rattus norvegicus): 17 mL/min/kg |
|  | 0.39 | COc1ccc([C@@H](CC(=O)O)NC(=O)[C@@H]2CCN2S(=O)(=O)c2cc(Cl)cc(Cl)c2)cc1 (stereo in doubt; 6g) | clearance (Rattus norvegicus): 39 mL/min/kg |
| 70 | 0.31 | O=C(O)C[C@@H](NC(=O)[C@@H]1CCN1S(=O)(=O)c1cc(Cl)cc(Cl)c1)c1ccc(OC2CC2)cc1 |  |
| 40 | 0.27 | CCOc1ccc([C@@H](CC(=O)O)NC(=O)[C@@H]2CCCN2S(=O)(=O)c2cc(Cl)cc(Cl)c2)cc1 |  |
